This is an account of results in BindingDB's records for doi:10.1016/j.bmcl.2014.06.001 (Tohoku Pharmaceutical University, 2014).

A short description of this assay: Inhibition of Wistar rat intestinal maltase assessed as inhibition of D-glucose release after 30 mins by spectrophotometry.

What is called IC50 is the point on the concentration scale where inhibition reaches its midpoint. `OC[C@@H]1N[C@@H](CCCCc2ccc(O)cc2)[C@H](O)[C@H]1O`: the IC50 was found to be 170 nM.
